This note sets out measurements from paper PMC2771899, “Augmentation of Reverse Transcription by Integrase through an Interaction with Host Factor, SIP1/Gemin2 Is Critical for HIV-1 Infection” (PLoS ONE, 2009).

For test [1], the system named is HIV-1 RT (GST-RTp66). Put plainly: In vitro RT assay, stimulation by IN and SIP1. In kind it is biochemical. On the procedure:
(§1) Figure 4 Augmentation of reverse transcription by HIV-1 IN and SIP1 in vitro. (A, B) The in vitro RT assay was carried out with 35 fmoles of HIV-1 RT (GST-RTp66) in the absence or presence of different amounts of full-length rIN (WT-IN). The truncated form of IN (IN1–70) that lack SIP1 binding domains was also tested in apparel as a control. The amount of HIV-1 cDNA was measured by real-time PCR using the HIV-1 R/U5 (A) or R/gag (B) primer pair. Significant augmentation (p<0.05) by WT-IN in the levels of HIV-1 cDNA compared with the level without IN (0 fmole) was indicated by asterisks. (C) The in vitro RT assay was carried out as described in (A) in either the absence or presence of […] of WT-IN, together with different amounts of rSIP1. (D) The in vitro RT assay was carried out with 3.5 fmoles of WT-IN (black bar) or IN1–70 (slash bar), in either the absence (−) or presence (+) of 50 fmoles of rSIP1. (E) The oligo(dT) cellulose resin was incubated with in vitro transcribed HIV-1 RNA for 1 h. After incubation, 10 µg of GST-RT in either the absence or presence of His-IN or rSIP1 was added and incubated for 2 h. After four washes with the IN storage buffer, precipitates were analyzed by immunoblot analysis using an anti-GST antibody.
For preparation of the viral RNA template for in vitro transcription, the DNA sequences corresponding to HIV-1 lentiviral genomic RNA (pCS-CDF-CG-PRE) were subcloned into pGEM-T vector (pGEM-CS-CDF). Then, the annealed oligonucleotides of TCGA(A)30G and TCGA(T)30C were inserted into the pGEM-CS-CDF vector at the Sal-I site for addition of the poly(A) tail (the pGEM-CS-CDF-PolyA). Synthesized HIV RNA with the poly(A) 30 tail were produced by in vitro transcription using RiboMAX™ Large Scale RNA Production System-T7 (Promega) with Ribo m^7 G Cap analog (Promega) to mimic the capped structure of mRNA. Transcription products of HIV-1 RNA (4.9 kb) were purified with spin columns MicroSpin™ G-25 Columns (American Biosciences), followed by gel-filtration using NAP-5 columns, (American Biosciences) and were used in the in vitro RT assay. The reverse transcription reactions were carried out in a final volume of 20 µl RT reaction buffer consisting of 50 mM Tris-HCl (pH 8.3), 75 mM KCl, 3 mM MgCl2, 10 mM DTT, 1 mM dNTPs, 0.04∼0.4 fmoles of HIV-1 RNA templates and 0.4∼4 fmoles of RNA primer, 3.5∼35 fmol HIV-1 RT (GST-RTp66). The reaction was carried out at 42°C for 30 min in either the absence or presence of different amount of His-IN and recombinant SIP1. The amount of the cDNA product was measured by real-time PCR using primers for the R/U5 or R/gag region.
Supplementary file pone.0007825.s004.pdf: Figure S4 Stoichiometry and order of IN and SIP1 for their stimulatory effect of cDNA synthesis. (A) The in vitro RT assay was carried out in the absence or presence of different amount of the His-IN (0.2 or 1 pmol) or recombinant SIP1 (0.2 or 1 pmol) as described in Figure 4. The amount of cDNA product was measured by real-time PCR using primers for HIV-1 R/U5 region. (B) The in vitro RT assay was carried out with 5 pmoles of His-IN in the absence or presence of different amount SIP1 (1 or 5 pmol). (C) The in vitro RT assay was carried out in the absence or presence of the His-IN and recombinant SIP1 with [α32P]dCTP and subjected to SDS-PAGE analysis in denatured condition. (D) In vitro RT assay was performed as described above, except that rIN with rRT and rSIP1 were pre-incubated on ice in different combinations and orders (inlet Table). Then, reaction was initiated by adding mixture containing the template RNA/PBS-primer and dNTPs. (0.10 MB PDF) Click here for additional data file.

Test [2] deals with RT on viral RNA. Nature of the test: RT assembly on viral RNA. In kind it is biochemical. The settings on record: HIV-1 RNA on oligo(dT) cellulose, 10 µg GST-RT, 2 h, immunoblot anti-GST (Figure 4E). On the procedure:
as §1
Next, the effects of IN and SIP1 on the assembly of RT on viral RNA was examined. […] Levels of RT on viral RNA were determined by immunoblot assay. […]

Test [3] concerns RT. Nature of the test: Direct binding to RT. Details: species or system HIV-1. The settings on record: data not shown.
The test system of test [4] is rSIP1. Nature of the test: Dot-blot binding of peptide to SIP1. Particulars: 40 or 400 nmol peptide on nitrocellulose, rSIP1 (5 µg), anti-SIP1 antibody.
Test [5] relates to IN-SIP1 interaction (His-IN, rSIP1). Nature of the test: Dot-blot inhibition of IN-SIP1 interaction by peptide. In kind it is binding, HIV-1.
Test [6] addresses T1, IN-SIP1 mediated RT activity (Homo sapiens, UniProt O14893).
T1 construct: the SIP1 gene was amplified from pTRE-SIP1 (kindly provided by Dr. G. Dreyfuss) by PCR and cloned into BamHI and EcoRI sites of pGEX-6P-2; GST (N, cleaved yes); made in house; host or cells: E. coli BL21 (GST-SIP1), E. coli M15 (His-IN)
T1 sequence (O14893 1-280): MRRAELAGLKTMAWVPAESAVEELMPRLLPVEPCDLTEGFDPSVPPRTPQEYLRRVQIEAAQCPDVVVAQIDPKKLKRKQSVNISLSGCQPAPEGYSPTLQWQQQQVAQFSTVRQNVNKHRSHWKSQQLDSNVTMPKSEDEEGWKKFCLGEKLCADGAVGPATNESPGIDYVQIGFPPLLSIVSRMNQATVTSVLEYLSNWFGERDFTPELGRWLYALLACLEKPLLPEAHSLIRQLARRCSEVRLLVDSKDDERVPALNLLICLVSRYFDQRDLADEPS
Put plainly: In vitro RT assay, inhibition of IN-SIP1 mediated RT activity by peptide. In kind it is biochemical, HIV-1.

Test [7] concerns HIVNL43-luc/VSV-G pseudotypes. In kind it is cell-based, HIV-1.
In test [8] the test system is HIV-1 cDNA synthesis. The class given is cell-based. The settings on record: PMA-stimulated THP-1 cells, 100 µM peptide 16 h before and 6 h during infection; R/U5 and R/gag, 24 h post-infection.
The subject of test [9] is MLV cDNA synthesis. The class given is cell-based, Moloney murine leukemia virus. Particulars: PMA-stimulated THP-1 cells, 100 µM peptide, MMLV vector pFB-Luc; R/U5 24 h post-infection; compared with DMSO or control peptide.
Test [10] deals with viral entry and RT enzymatic activity. Put plainly: Direct effect on viral entry and RT enzymatic activity. Further details: species or system HIV-1. The settings on record: data not shown.

“Also recorded” adds a separate entry of the source.

On to “SIP1: survival motor neuron-interacting protein 1, recombinant”, for which the “Effect of SIP1 on RT activity at higher amounts of IN” value in test [1] (5 pmoles His-IN, SIP1 1 or 5 pmol (Figure S4B)) is listed as “not evident; also recorded: could not observed when high amount of IN protein was present”. Further, the “Stimulation of RT activity by SIP1 with IN1–70” value in test [1] (3.5 fmoles IN1–70, 50 fmoles rSIP1, P = 0.98) is reported as “no significant”. Besides, the “Stimulation of RT activity by SIP1 in presence of full-length IN” value in [1] (3.5 fmoles WT-IN, 50 fmoles rSIP1, P = 0.001) is given as “Significant stimulation of RT activity”. Moreover, the “Enhancement of IN-stimulated RT activity by SIP1” value in test [1] (WT-IN plus different amounts of rSIP1 (Figure 4C)) is given as “further enhanced by SIP1 in a dose-dependent manner”. In addition, in test [1] (pre-incubation of RT and IN before SIP1, on ice (Figure S4D)), the “Effect of pre-incubation order on stimulatory effect” value is “most effective stimulatory effect”. Further, the “Stimulation of RT activity by SIP1 alone” value in test [1] (without IN, P = 0.69) is recorded as “no significant”. Besides, the “Level of RT on viral RNA” value in test [2] is given as “enhanced RT assembly on viral RNA”. The “Direct binding to RT” value in [3] is recorded as “cannot bind to RT directly”.

“IN60–80: synthetic peptide corresponding to the residues of 60–80 of HIV-1 IN (IWQLDCTHLEGKVILVAVHVA; Integrase; UniProt P04585 1207-1227, looked up, fragment)”: in [4], the “Direct binding of peptide to rSIP1” value is recorded as “efficiently bound to rSIP1”. The “Peptide concentration that reduces His-WT binding to SIP1 to non-specific background levels” value in [5] (His-IN (10 µg) on nitrocellulose, 5 µg rSIP1) is “About 5 µM”. Also, in test [5] (His-IN (10 µg) on nitrocellulose, 5 µg rSIP1, peptide present), the “Interference with binding of full-length IN (His-WT) to SIP1” value is “significantly interfered with the binding of the full-length IN (His-WT) to the SIP1 protein”. In test [5] (IN60–80 versus IN231–251), the “Inhibitory effect on His-WT binding to SIP1 relative to IN231–251” value was “more than 10 times”. Besides, in test [6] (35 fmol RT, 3.5 fmol His-IN, 50 fmol rSIP1, 42°C, 30 min, 20 µl, real-time PCR), the “IC50, inhibition of IN-SIP1 mediated RT activity” value is about 10 pmoles per reaction. Moreover, the “Effect on IN-SIP1 mediated RT activity” value in test [6] (35 fmol RT, 3.5 fmol His-IN, 50 fmol rSIP1, cDNA relative to control) is “significantly reduced the IN-SIP1 mediated RT activity in a dose-dependent manner”. Besides, the “Inhibitory effect on IN-SIP1 mediated RT activity relative to IN231–251” value in [6] (IN60–80 versus IN231–251) is listed as “more than 100 times”. For the same substance, in [6] (summary statement), the “Effect on IN-mediated RT stimulatory effect and HIV-1 replication” value is “specifically block IN-mediated RT stimulatory effect and HIV-1 replication”. The “HIV-1 infectivity, % of control” value in [7] is 20–25 % of control. Also, in test [8], the “Viral cDNA synthesis, % of control” value is reported as “less than 25 % of control”. Besides, the “Effect on MLV cDNA synthesis” value in [9] was “no significant inhibitory effect”. For the same substance, the “Direct effect on viral entry and RT enzymatic activity” value in [10] is “does not directly suppress viral entry and RT enzymatic activity”.
